Key:
D(2) dopamine receptor = D(2) dopamine receptor (Bos taurus, UniProt P20288); test: In vitro binding affinity towards Dopamine D2 receptor using [3H]spiperone as radioligand
D(1A) dopamine receptor = D(1A) dopamine receptor (Bos taurus, UniProt Q95136); test: In vitro binding affinity towards Dopamine D1 receptor using [3H]-SCH- 23390 as radioligand
[1] = Dissociation constant was evaluated; assay type: physicochemical

Chain of D(1A) dopamine receptor (Q95136 whole entry): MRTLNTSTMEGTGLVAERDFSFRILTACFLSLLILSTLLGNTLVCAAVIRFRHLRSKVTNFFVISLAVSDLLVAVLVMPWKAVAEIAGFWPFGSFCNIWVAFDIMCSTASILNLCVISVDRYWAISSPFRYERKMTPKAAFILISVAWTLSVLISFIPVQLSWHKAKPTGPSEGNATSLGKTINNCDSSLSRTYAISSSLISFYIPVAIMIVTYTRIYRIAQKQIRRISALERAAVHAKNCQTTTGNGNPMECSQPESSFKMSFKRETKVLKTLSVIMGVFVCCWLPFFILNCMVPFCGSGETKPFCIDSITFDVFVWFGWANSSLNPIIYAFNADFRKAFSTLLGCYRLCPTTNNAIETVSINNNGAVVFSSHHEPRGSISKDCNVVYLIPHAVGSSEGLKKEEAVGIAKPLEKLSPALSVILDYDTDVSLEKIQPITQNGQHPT
Chain of D(2) dopamine receptor (P20288 whole entry): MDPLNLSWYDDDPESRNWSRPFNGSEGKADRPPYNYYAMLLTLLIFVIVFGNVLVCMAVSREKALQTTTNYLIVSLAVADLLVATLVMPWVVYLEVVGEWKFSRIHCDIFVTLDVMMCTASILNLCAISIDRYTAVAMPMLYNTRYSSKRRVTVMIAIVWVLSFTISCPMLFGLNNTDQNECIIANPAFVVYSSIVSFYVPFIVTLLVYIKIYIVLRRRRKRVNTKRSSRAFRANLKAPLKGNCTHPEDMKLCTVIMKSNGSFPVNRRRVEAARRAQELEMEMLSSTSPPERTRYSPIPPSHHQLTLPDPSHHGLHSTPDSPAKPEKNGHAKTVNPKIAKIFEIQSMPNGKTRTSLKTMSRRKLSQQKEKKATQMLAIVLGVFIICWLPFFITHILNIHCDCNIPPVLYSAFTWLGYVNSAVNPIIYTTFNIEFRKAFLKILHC

Question: For CCCN(CCC)CCc1ccc(NC(=O)C(F)(F)F)c(NC(=O)C(F)(F)F)c1, which IC50 (D(2) dopamine receptor) is on record?
Answer: Its IC50 is > 100 µM.

Question: What about the IC50 (D(1A) dopamine receptor) of the same compound?
Answer: Its IC50 is > 100 µM.

Question: For CCCN(CCC)CCc1ccc2nn[nH]c2c1, which IC50 (D(2) dopamine receptor) is on record?
Answer: The IC50 was 50 µM.

Question: What about the IC50 (D(1A) dopamine receptor) of the same compound?
Answer: The IC50 was > 100 µM.

Question: What does the source list for CCCN(CCC)CCc1ccc(NC(C)=O)c(NC(C)=O)c1?
Answer: IC50 (D(2) dopamine receptor): > 100 µM; IC50 (D(1A) dopamine receptor): > 100 µM

Question: Which IC50 (D(2) dopamine receptor) does the source give for CCCN(CCC)CCc1ccc2[nH]c(O)nc2c1 here?
Answer: Its IC50 is > 100 µM.

Question: And the IC50 (D(1A) dopamine receptor)?
Answer: The IC50 was > 100 µM.

Question: With CCCN(CCC)CCc1ccc2[nH]c(S)nc2c1 as the compound, how does the IC50 (D(2) dopamine receptor) read?
Answer: The IC50 was 1 µM.

Question: What about the IC50 (D(1A) dopamine receptor) of the same compound?
Answer: Its IC50 is > 100 µM.

Question: What about the pKa [1] of the same compound?
Answer: Its pKa is 9.8.

Question: What does the source list for CCCN(CCC)CCc1ccc2[nH]c(=O)c(=O)[nH]c2c1?
Answer: IC50 (D(2) dopamine receptor): 3 µM; IC50 (D(1A) dopamine receptor): > 100 µM; pKa [1]: 9.5

Question: With NCCc1ccc(O)c(O)c1 [DOPAMINE] as the compound, how does the IC50 (D(1A) dopamine receptor) read?
Answer: The IC50 was 0.2 µM.
